From patent US11192849B2, “Compounds, compositions, and methods for modulating ferroptosis and treating excitotoxic disorders” (THE TRUSTEES OF COLUMBIA UNIVERSITY IN THE CITY OF NEW YORK, priority 2013, dated 2021)

Test system: rat organotypic hippocampal slice culture (OHSC)
Assay: Glutamate excitotoxic injury in organotypic hippocampal slice cultures (PI uptake)
Assay type: cell-based
Conditions: 5 mM L-glutamate 3 hours; Fer-1 2 μM, CPX 5 μM, MK-801 10 μM; 24 hours
Experimental: OHSCs were cultured as previously described (Morrison et al., 2002) with approval from Columbia University's Institutional Animal Care and Use Committee (IACUC). Briefly, Sprague Dawley rat pups (P8-P10) were rapidly decapitated, and the hippocampus placed in ice-cold Gey's balanced salt solution (Sigma). 400 μm thick sections were cut using a Mcllwain tissue chopper and immediately plated on Millicell cell culture inserts (Millipore, Billerica, Mass.) in Neurobasal (Invitrogen) media supplemented with B27 (1×, Invitrogen), GlutaMAX (1 mM, Invitrogen), and D-glucose (4.5 mg/mL, Sigma) at 37° C. and 5% CO2. After 2 days in vitro (DIV), the media was changed to medium containing serum comprised of 50% DMEM (Sigma), 25% heat-inactivated horse serum (Sigma), 25% Hank's balanced salt solution (Sigma), GlutaMAX (1 mM, Invitrogen), and D-glucose (4.5 mg/mL, Sigma). Medium was changed every 2-3 days.
After 10-14 DIV, OBSCs were exposed to an excitotoxic injury consisting of a 3 hour exposure to 5 mM L-glutamate in SFM (Morrison et al., 2002). […] After the 3 hour exposure, the cultures were placed in fresh serum free media (SFM) containing 75% DMEM, 25% Hank's balanced salt solution, GlutaMAX (1 mM), D-glucose (4.5 mg/mL) until cell death was quantified at 24 hours. […]
Quantification of cell death has been described previously (Cater et al., 2007; Morrison et al., 2002). […] Percentage cell death was expressed as the number of pixels in the ROI above a threshold in the PI fluorescent image divided by the total number of pixels in the ROI.
OHSCs were treated with a lethal excitotoxic stimulus (5 mM L-glutamate, 3 hours) that mimics the consequences of stroke and neurodegenerative disease (Morrison et al., 2002; Sundstrom et al., 2005) (FIG. 5A). […] The effects of these compound treatments on propidium iodide (PI) uptake were analyzed, as an indicator of cell death, 24 hours following the end of glutamate treatment, in 3 defined regions of the OHSCs: the dentate gyrus (DG), the CA1 and the CA3 fields of the hippocampus.

CCOC(=O)c1ccc(NC2CCCCC2)c(N)c1 [SRS8-28 (Fer-1), ethyl 3-amino-4-(cyclohexylamino)benzoate]
glutamate-induced cell death (PI uptake) in DG, CA1, CA3: attenuated significantly
